According to US9751881B2, “Inhibitors of the renal outer medullary potassium channel” (Merck Sharp & Dohme Corp., priority 2013, dated 2017):
Structures can show the parent of a compound that is named as a salt.

molecular target: hROMK (hKir1.1) (Homo sapiens (Human), UniProt P48048); test: Thallium Flux Assay (ROMK channel functional thallium flux, FLIPR-Tetra); type: cell-based; settings: HEK293 cells stably expressing hROMK (hKir1.1); unit not given in Table 4 (IC50 potencies less than 1 μM); read-out: ROMK TI IC50
Summary of the method: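 HEK293 cells stably expressing hROMK, FluxOR dye-loaded 90 min, then compound 30 min at room temperature. Normalised to 3 μM reference ROMK inhibitor as % fluorescence change.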

Chain of hROMK (hKir1.1) (P48048 whole entry): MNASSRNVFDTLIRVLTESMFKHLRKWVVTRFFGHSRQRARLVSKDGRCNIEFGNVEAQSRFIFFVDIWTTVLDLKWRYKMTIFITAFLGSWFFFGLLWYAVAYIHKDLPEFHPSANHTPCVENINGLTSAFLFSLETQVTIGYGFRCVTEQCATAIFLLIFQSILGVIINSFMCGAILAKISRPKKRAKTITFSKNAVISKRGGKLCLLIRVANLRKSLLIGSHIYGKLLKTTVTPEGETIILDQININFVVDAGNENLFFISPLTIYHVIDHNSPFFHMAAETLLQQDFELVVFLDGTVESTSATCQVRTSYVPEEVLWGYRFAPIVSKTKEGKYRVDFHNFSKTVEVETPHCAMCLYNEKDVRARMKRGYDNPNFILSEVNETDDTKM

Structure (SMILES)	IC50 [nM]
CCS(=O)(=O)c1cnc(N2CC3(CCN(C[C@H](O)c4ccc5c(c4C)COC5=O)CC3)CC2=O)cn1 [Example 68, 2-[5-(Ethylsulfonyl)pyrazin-2-yl]-8-[(2R)-2-hydroxy-2-(4-methyl-1-oxo-1,3-dihydro-2-benzofuran-5-yl)ethyl]-2,8-diazaspiro[4.5]decan-3-one hydrochloride]	127
Cc1cc(C#N)cnc1N1CCC2(CCN(CC(O)c3ccc4c(c3C)COC4=O)CC2)CC1 (stereo not shown) [Example 108]	255
COc1ccc(C#N)cc1N1CCC2(CCN(C[C@H](O)c3ccc4c(c3C)COC4=O)CC2)C1 [Example 85]	234
Cc1c([C@@H](O)CN2CCC3(CCN(c4ncc(-n5cnnn5)cn4)CC3)C2)ccc2c1COC2=O [Example 54, (R)-5-(2-(8-(5-(1H-tetrazol-1-yl)pyrimidin-2-yl)-2,8-diazaspiro[4.5]decan-2-yl)-1-hydroxyethyl)-4-methylisobenzofuran-1(3H)-one]	262
Cc1c([C@@H](O)CN2CCC3(CC2)CCN(c2cnc(S(C)(=O)=O)cn2)C3=O)ccc2c1COC2=O [Example 42, (R)-8-(2-Hydroxy-2-(4-methyl-1-oxo-1,3-dihydroisobenzofuran-5-yl)ethyl)-2-(5-(methylsulfonyl)pyrazin-2-yl)-2,8-diazaspiro[4.5]decan-1-one]	216
CCS(=O)(=O)c1ccc(N2CCC3(CCN(C[C@H](O)c4ccc5c(c4C)COC5=O)CC3)C2)cn1 [Example 30, (R)-5-(2-(2-(6-(Ethylsulfonyl)pyridin-3-yl)-2,8-diazaspiro[4.5]decan-8-yl)-1-hydroxyethyl)-4-methylisobenzofuran-1(3H)-one]	271
Cc1c(C(O)CN2CCC3(CC2)CCN(c2ncccc2C#N)CC3)ccc2c1COC2=O (stereo not shown) [Example 107]	180
Cc1c([C@@H](O)CN2CCC3(CC2)CN(c2ccc(S(C)(=O)=O)cn2)C3)ccc2c1COC2=O [Example 47, (R)-5-(1-Hydroxy-2-(2-(5-(methylsulfonyl)pyridin-2-yl)-2,7-diazaspiro[3.5]nonan-7-yl)ethyl)-4-methylisobenzofuran-1(3H)-one]	220
Cc1c([C@@H](O)CN2CCC3(CC2)CCN(c2ccnc(-c4ccoc4)n2)C3=O)ccc2c1COC2=O [Example 115, (R)-2-(2-(furan-3-yl)pyrimidin-4-yl)-8-(2-hydroxy-2-(4-methyl-1-oxo-1,3-dihydroisobenzofuran-5-yl)ethyl)-2,8-diazaspiro[4.5]decan-1-one]	286
Cc1c([C@@H](O)CN2CCC3(CC2)CN(c2ccc(S(C)(=O)=O)cn2)C(=O)O3)ccc2c1COC2=O [Example 91, (R)-8-(2-hydroxy-2-(4-methyl-1-oxo-1,3-dihydroisobenzofuran-5-yl)ethyl)-3-(5-(methylsulfonyl)pyridin-2-yl)-1-oxa-3,8-diazaspiro[4.5]decan-2-one]	208
Cc1c([C@@H](O)CN2CCC3(CCN(c4ccc(S(C)(=O)=O)cn4)CC3)C2)ccc2c1COC2=O [Example 64, 5-[(1R)-1-Hydroxy-2-{8-[5-(methylsulfonyl)pyridin-2-yl]-2,8-diazaspiro[4.5]dec-2-yl}ethyl]-4-methyl-2-benzofuran-1(3H)-one hydrochloride]	272
Cc1c([C@@H](O)CN2CCC3(CC2)CCN(c2nnc(S(C)(=O)=O)s2)C3=O)ccc2c1COC2=O [Example 76, 8-[(2R)-2-Hydroxy-2-(4-methyl-1-oxo-1,3-dihydro-2-benzofuran-5-yl)ethyl]-2-[5-(methylsulfonyl)-1,3,4-thiadiazol-2-yl]-2,8-diazaspiro[4.5]decan-1-one hydrochloride]	100
N#Cc1ccc(N2CCC3(CCN(CC4OCCc5c4ccc4c5COC4=O)CC3)C2)nc1 (stereo not shown) [Example 27, 6-(8-((3-oxo-3,6,8,9-tetrahydro-1H-furo[3,4-f]isochromen-6-yl)methyl)-2,8-diazaspiro[4.5]decan-2-yl)nicotinonitrile]	103
Cc1c([C@@H](O)CN2CCC3(CC2)CCN(c2cccc(C#N)c2)C3)ccc2c1COC2=O [Example 89]	118
Cc1nc(N2CC3(CCN(C[C@H](O)c4ccc5c(c4C)COC5=O)CC3)CC2=O)ccc1-n1cnnn1 [Example 73, 8-[(2R)-2-Hydroxy-2-(4-methyl-1-oxo-1,3-dihydro-2-benzofuran-5-yl)ethyl]-2-[6-methyl-5-(1H-tetrazol-1-yl)pyridin-2-yl]-2,8-diazaspiro[4.5]decan-3-one hydrochloride]	359
Cc1c([C@@H](O)CN2CCC3(CC2)CN(c2ccc(S(C)(=O)=O)nc2)C3)ccc2c1COC2=O [Example 46, (R)-5-(1-Hydroxy-2-(2-(6-(methylsulfonyl)pyridin-3-yl)-2,7-diazaspiro[3.5]nonan-7-yl)ethyl)-4-methylisobenzofuran-1(3H)-one]	256
Cc1c([C@@H](O)CN2CCC3(CC2)CN(c2ccc(C#N)cn2)C3=O)ccc2c1COC2=O [Example 44, (R)-6-(7-(2-Hydroxy-2-(4-methyl-1-oxo-1,3-dihydroisobenzofuran-5-yl)ethyl)-1-oxo-2,7-diazaspiro[3.5]nonan-2-yl)nicotinonitrile]	369
Cc1cc2c(cc1C(O)CN1CCC3(CC1)CCN(c1ccc(S(C)(=O)=O)cn1)C3)COC2=O (stereo not shown) [Example 39, 5-(1-Hydroxy-2-(2-(5-(methylsulfonyl)pyridin-2-yl)-2,8-diazaspiro[4.5]decan-8-yl)ethyl)-6-methylisobenzofuran-1(3H)-one]	195
Cc1c([C@@H](O)CN2CCC3(CC2)CCN(c2cc(C#N)ccc2F)C3)ccc2c1COC2=O [Example 84]	255

Stronger by IC50, values ahead:

IC50 [nM]	Structure (SMILES)
23	Cc1cc2c(cc1C(O)CN1CCC3(CC1)CC(=O)N(c1ccc(C#N)cn1)C3)COC2=O (stereo not shown) [Example 2, 6-(8-(2-hydroxy-2-(6-methyl-1-oxo-1,3-dihydroisobenzofuran-5-yl)ethyl)-3-oxo-2,8-diazaspiro[4.5]decan-2-yl)nicotinonitrile]
70.6	C=CCN[C@@H](CN1CCC2(CC1)CCN(c1ccc(C#N)cn1)C2)c1ccc2c(c1C)COC2=O [Example 78, (R)-6-(8-(2-(allylamino)-2-(4-methyl-1-oxo-1,3-dihydroisobenzofuran-5-yl)ethyl)-2,8-diazaspiro[4.5]decan-2-yl)nicotinonitrile]
21.5	COc1cc(N2CCC3(CCN(C[C@H](O)c4ccc5c(c4C)COC5=O)CC3)C2)ncc1C#N [Example 7, (R)-6-(8-(2-Hydroxy-2-(4-methyl-1-oxo-1,3-dihydroisobenzofuran-5-yl)ethyl)-2,8-diazaspiro[4.5]decan-2-yl)-4-methoxynicotinonitrile]
32.8	COc1cc(N2CCC3(CCN(C[C@H](O)c4ccc5c(c4C)COC5=O)CC3)C2)ncc1C#N [Example 82]
10.1	Cc1cc(N2CCC3(CCN(C[C@H](O)c4ccc5c(c4C)COC5=O)CC3)C2)cnc1C#N [Example 81]
33	Cc1c([C@@H](O)CN2CCC3(CC2)CCN(c2cncc(C#N)c2)C3)ccc2c1COC2=O [Example 12, (R)-5-(8-(2-Hydroxy-2-(4-methyl-1-oxo-1,3-dihydroisobenzofuran-5-yl)ethyl)-2,8-diazaspiro[4.5]decan-2-yl)nicotinonitrile]
6.7	Cc1c([C@@H](O)CN2CCC3(CC2)CCN(c2ncc(C#N)s2)C3)ccc2c1COC2=O [Example 90]
54.4	Cc1c([C@@H](O)CN2CCC3(CC2)CCN(c2ccnc(C#N)c2)C3)ccc2c1COC2=O [Example 60, (R)-4-(8-(2-Hydroxy-2-(4-methyl-1-oxo-1,3-dihydroisobenzofuran-5-yl)ethyl)-2,8-diazaspiro[4.5]decan-2-yl)picolinonitrile]
14.5	Cc1c(C(O)CN2CCC3(CC2)CCN(c2ncc(C#N)cn2)CC3)ccc2c1COC2=O (stereo not shown) [Example 109]
32.9	COc1cc(N2CC3(CCN(C[C@H](O)c4ccc5c(c4C)COC5=O)CC3)CC2=O)ncc1C#N [Example 59, (R)-6-(8-(2-Hydroxy-2-(4-methyl-1-oxo-1,3-dihydroisobenzofuran-5-yl)ethyl)-3-oxo-2,8-diazaspiro[4.5]decan-2-yl)-4-methoxynicotinonitrile]
15	Cc1c([C@@H](O)CN2CCC3(CC2)CC(=O)N(c2ccc(C#N)cc2)C3)ccc2c1COC2=O [Example 14, (R)-4-(8-(2-Hydroxy-2-(4-methyl-1-oxo-1,3-dihydroisobenzofuran-5-yl)ethyl)-3-oxo-2,8-diazaspiro[4.5]decan-2-yl)benzonitrile]
68	Cc1c([C@@H](O)CN2CCC3(CC2)CC(=O)N(c2ccc(S(C)(=O)=O)c(F)c2)C3)ccc2c1COC2=O [Example 67, 2-[3-Fluoro-4-(methylsulfonyl)phenyl]-8-[(2R)-2-hydroxy-2-(4-methyl-1-oxo-1,3-dihydro-2-benzofuran-5-yl)ethyl]-2,8-diazaspiro[4.5]decan-3-one hydrochloride]
26.3	Cc1c(C(O)CN2CCC3(CC2)CCN(c2cc(C#N)ncn2)CC3)ccc2c1COC2=O (stereo not shown) [Example 106]
10.5	Cc1c([C@@H](O)CN2CCC3(CC2)CC(=O)N(c2ccc(C#N)cn2)C3)ccc2c1COC2=O [Example 1, (R)-6-(8-(2-hydroxy-2-(4-methyl-1-oxo-1,3-dihydroisobenzofuran-5-yl)ethyl)-3-oxo-2,8-diazaspiro[4.5]decan-2-yl)nicotinonitrile]
92.5	Cc1c([C@@H](O)CN2CCC3(CC2)CC(=O)N(c2ccc(-n4cnnn4)cn2)C3)ccc2c1COC2=O [Example 6, (R)-2-(5-(1H-tetrazol-1-yl)pyridin-2-yl)-8-(2-hydroxy-2-(4-methyl-1-oxo-1,3-dihydroisobenzofuran-5-yl)ethyl)-2,8-diazaspiro[4.5]decan-3-one]
